Columns and labels:
Type in all cases: binding, human influenza virus A
Set-up in all cases: key: “+” = binding; “−” = no binding; “(+)” = trace binding
A/Taiwan/1/86 H1N1 = tested on: A/Taiwan/1/86 H1N1
A/Beijing/262/95 H1N1 = tested on: A/Beijing/262/95 H1N1
A/New Caledonia/20/99 = tested on: A/New Caledonia/20/99
A/Kiev/301/94 H3N2 = tested on: A/Kiev/301/94 H3N2
A/Shangdong/9/93 H3N2 = tested on: A/Shangdong/9/93 H3N2
A/PR/8/34 H1N1 = tested on: A/PR/8/34 H1N1
A/X31, A/Aichi/3/75 H3N2 = tested on: A/X31, A/Aichi/3/75 H3N2
A/2/Japan/305/57 H2N2 = tested on: A/2/Japan/305/57 H2N2
A/Hong Kong/8/68 H3N2 = tested on: A/Hong Kong/8/68 H3N2

Measured: Binding of different human influenza virus A strains to glycolipids

Globoside
−: A/Taiwan/1/86 H1N1 | A/Beijing/262/95 H1N1 | A/New Caledonia/20/99 | A/Kiev/301/94 H3N2 | A/Shangdong/9/93 H3N2 | A/PR/8/34 H1N1 | A/X31, A/Aichi/3/75 H3N2 | A/2/Japan/305/57 H2N2 | A/Hong Kong/8/68 H3N2

From patent US20070243629A1, “High Affinity Ligands for Influenza Virus and Methods for Their Production” (Glykos Finland Oy, priority 2003, published 2007)
